Laboratory results taken from patent publication US11013219B2, “Metabolism-based drug screening platform in bioengineered zebrafish” (Path Therapeutics, Inc., priority 2014, dated 2021).

Key:
park2 morphants = test: Seahorse basal respiration, park2 morphants (Parkinson's Disease model); assay type: in vivo, zebrafish; conditions: park2-MO
Method: (§1) Next, all positive hits were assayed for improve bioenergetics using Seahorse bioanalyzer (Seahorse, Inc). Briefly, morphant zebrafish were seeded into 24-well Islet Flux plates (Seahorse) and incubated with compound or vehicle for 10 minutes prior to analysis. Complete mitochondrial profile was assessed for each individual larvae. Drugs that improved bioenergetics by 40% were considered candidate drugs.
(§2) Morpholinos directed to scn1a (epilepsy), park2 (neurodegenerative disease), idh1 (brain tumors (astrocytoma/oligodendrogliomas), cdkn2b (oligodendroglioma), h3f3a (oligodendroglioma), snf5 (smarcbla in zebrafish; Atypical Teratoid/Rhabdoid)), and shank3 (Autism Spectrum Disorder) were created and zebrafish larvae exposed as detailed in Example 3.

scn1a morphants [1] = test: Drug-discovery platform (locomotor screen, then Seahorse), scn1a morphant genetic model; assay type: in vivo, zebrafish; conditions: blinded study
Method: (§3) 10 mM stock solutions of drugs in DMSO were stored at −80° C. and on the day of assay were diluted in E3 medium to a final concentration of 20 μM. For behavioral assays and Seahorse bioenergetics, 20 μM final concentration was used. Adult wild-type TL zebrafish were raised at the Kurrasch Aquatic Research Laboratory at the University of Calgary under standard conditions (28° C., 14 h light/10 h dark cycle) on a recirculating water system.
(§4) Embryos were obtained by natural spawning from mating pairs, screened for viability and for kcna1 and scn1a morpholino models, embryos were injected with either the kcna1- or scn1a-targeting morpholino at the one cell stage. The embryos were sorted for uptake of the morpholino four hours post-injection and seeded to 96 well plates, wrapped in aluminum foil (i.e., raised in the dark), maintained in a non-CO2 incubator at 28.5° C. until 5 dpf.
(§5) On the day of assay, for the kcna1 and scn1a morpholino models, fish were habituated for 20 minutes under 100% light treated with 20 μm of drugs for 20 minutes, and then assayed for locomotor activity in dark for 20 minutes in the zebrabox (Viewpoint Lifesciences, Lyon, Fr). Larval locomotor activity was analyzed using Zebralab V3 software (Viewpoint Lifesciences, Lyon, Fr). For the PTZ model, at 5 dpf, fish were treated with 10 mM PTZ for 10 minutes and then with 20 μM of drugs for 20 minutes under ambient light, and then assayed for locomotor activity under 100% light for 20 minutes in the zebrabox (Viewpoint Lifesciences, Lyon, Fr). Larval locomotor activity was analyzed using Zebralab V3 software (Viewpoint Lifesciences, Lyon, France).
(§6) For the Seahorse bioenergetics measurements, microinjected kcna1 or scn1a morphants or WT zebrafish were maintained in 96 well plates as previously described. XF24 extracellular flux assay plates (Seahorse Bioscience; Massachusetts), were hydrated overnight with XF Calibrant (pH 7.4). […]

kcna1 morphants = test: Drug-discovery platform (locomotor screen, then Seahorse), kcna1 morphant genetic model; assay type: in vivo, zebrafish; conditions: blinded study
Method: as §3, §4, §5, §6

kcna1 mutants = test: Seahorse basal respiration, kcna1 genetic mutant larvae; assay type: in vivo, zebrafish; conditions: larvae with increased basal respiration washed with PBS and treated
Method: This example confirms that the results of drug screens using zebrafish morphants are the same in zebrafish bearing corresponding germline mutations. kcna1^+/− zebrafish were generated as described in Example 1. Heterozygous kcna1^+/− F1s were incrossed and the offspring examined in a behavioral monitoring chamber (Zebralab). We assume ¾ of the progeny are WT or heterozygotes and ¼ are mutants.
Next, a similar experiment was conducted to confirm that kcna1 mutants display a similar phenotype for mitochondrial function (e.g., increased mitochondrial function). Larvae were seeded into 24-well plates and assayed in the Seahorse machine for altered bioenergetics as discussed above. […] Increased basal respiration levels in approximately 25% of the embryos were also detected, as would be expected for a homozygous recessive mutation. […] Genotype was subsequently confirmed by qPCR (FIG. 9D).

kcna1 morphant zebrafish = test: Seahorse bioenergetic analysis, kcna1 morphants; assay type: in vivo; conditions: Seahorse Bioanalyzer; for effect on elevated basal respiration in kcna1 morphant larvae: 24-well plate
Excerpt: (§7) One exemplary protocol for measuring oxygen consumption rates (OCR) using Extracellular Flux Analyzer (Seahorse Bioscience, Billerica Mass.) is described below. First, sensor cartridges are hydrated in XF Calibrant Solution in 24-well cell culture microplates overnight at 28.5 C. Prior to experiment, injection ports are filled with appropriate treatments and loaded into XH24 instrument. Staged zebrafish embryos (3 days post fertilization used here) are individually placed in 20 of the 24 wells (4 wells serve as controls) on the islet microplate filled with E3 buffer and islet plate capture screens are placed on top to keep living zebrafish from moving during experiment. Plates are loaded into the instrument and six measurement cycles were taken to establish basal rates, which were then followed by treatment injections and 18 additional measurement cycles. OCRs were calculated at cycles five and six and then averaged to create the basal respiration. FCCP treatment was used to measure maximum OCR and oligomycin was used to measure minimum OCR.
as §1
FIG. 4 provides workflow and results of bioenergetic analyses in a hyperactive zebrafish. […] The plates were loaded into XFe24 Seahorse Bioanalyzer. Basal, maximal, non-mitochondrial, and mitochondrial cellular respiration were measured.

[2] = test system: kcna1 zebrafish morphants; test: Behavioral hyperactivity (locomotion) assay, kcna1 morphants; assay type: in vivo; conditions: larvae 5 days post fertilization; 10 minutes preincubation, assayed 20 minutes
Method: This Example utilizes the drug screening assay disclosed herein using morpholino-injected embryos to transiently knockdown genes of interest. Here, we compare three “epileptic” models for phenotypes in the behavioral assay: pharmacological-induction model (PTZ) and two genetic knockdown models (kcna1 and scn1a morphants).
Larvae were treated with morpholinos to kcna1 and scn1a as described above.
Zebrafish larvae (5 days post fertilization) were seeded into 96 well microliter plates containing vehicle solution and monitored for 20 minutes for hyperactivity. Morphants and WT zebrafish were exposed to drug for 10 minutes preincubation and then assayed for changes in hyperactivity for 20 minutes (Zebralab box). Drugs that decreased hyperactivity behavior by 40% in morphants were identified as “positive hits.”
These positive hits were then verified by conducting a dose-response relationship using hyperactivity as readout.

scn1a morphants [3] = test: Seahorse basal respiration, scn1a morphants; assay type: in vivo; conditions: scn1a-MO zebrafish
Method: as §1, §2

[4] = test system: PTZ-induced hyperactive zebrafish; test: Seahorse bioenergetic analysis, PTZ-treated larvae; assay type: in vivo; conditions: Seahorse Bioanalyzer
Excerpt: as §7, with “FCCP treatment was used to measure maximum OCR and oligomycin was used to measure minimum OCR.” left out
Next, all positive hits were assayed for improve bioenergetics using Seahorse bioanalyzer (Seahorse, Inc). […] Complete mitochondrial profile was assessed for each individual larvae. […]
FIG. 4 provides workflow and results of bioenergetic analyses in a hyperactive zebrafish. […] Basal, maximal, non-mitochondrial, and mitochondrial cellular respiration were measured.

shank3 morphants = test: Seahorse basal respiration, shank3 morphants (ASD and schizophrenia model); assay type: in vivo, zebrafish; conditions: shank3-MO
Method: as §1, §2

cdkn2b morphants = test: Seahorse basal respiration, cdkn2b morphants (glioblastoma model); assay type: in vivo, zebrafish; conditions: cdkn2b-MO
Method: as §1, §2

smarcbla morphants = test: Seahorse basal respiration, smarcbla morphants (AT/RT model); assay type: in vivo, zebrafish; conditions: smarcbla-MO
Method: as §1, with “larvae.” for “larvae. Drugs that improved bioenergetics by 40% were considered candidate drugs.”
as §2

kcna1 mutant zebrafish = test: EEG / extracellular field recordings on live zebrafish larvae; assay type: in vivo; conditions: kcna1 mutants plus vorinostat (10 μM)
Method: First, EEG recordings on live zebrafish were conducted. Briefly, acute seizure-like activity is measured in WT and mutant zebrafish larvae (5 dpf). Extracellular field recordings were obtained from the optic tectum of zebrafish larvae exposed first to vehicle, then washed out and then exposed to candidate drugs. Recordings are collected over 20 minutes and any decrease in small-amplitude “interictal”-like activity and/or large-amplitude “ictal”-like activity is quantified.

Kv1.1 null mice = test: Video EEG seizure recording in Kv1.1 rodent model; assay type: in vivo; conditions: three Kv1.1−/− mice; 20 mg/kg, twice a day, three consecutive days (PND 46-48) vs no treatment (PND 43-45); Two-way ANOVA, F=27.7, p<0.01
Method: Second, candidate drugs that decrease interictal-and/or ictal-like activity in mutant zebrafish lines are then validated in rodent models. Two rodent lines that contain coding deletions in the mammalian orthologs to the zebrafish mutants were used. Candidate drugs were injected intracranially and a decrease in seizure behaviors are monitored using video and […].
Briefly, mice were anesthetized with 3% isofluorane for 2 minutes. Eye glue was applied to the mouse, and anesthesia […] to 2% isofluorane. A “toe pinch” was administered to check anesthetic effect. The surgical area was then shaved while still connected to anesthesia. The anesthesia was increased to 2.5% isofluorane and the anesthetic cone placed over the nose. […]
Vorinostat (Drug #90) treatment reduces seizure occurrence in Kv1.1 null mice. Shown is a representative example of an electrographic seizure recorded from a Kv1.1−/−mouse. Three sets of epidural electroencephalogram (EEG) electrodes simultaneously recorded the signals across the rostral (top trace), medial (middle), and caudal (bottom trace) dorsal aspect of the neocortex. Bar graph of the mean number of seizures per day recorded from three Kv1.1−/−mice. Mice were recorded 24 hours per day for 3 consecutive days (No treatment, PND 43-45) and then received vorinostat injections (20 mg/kg, twice a day) for the next three consecutive days (PND 46-48).

In the case of N[C@@H](Cc1ccc(O)c(O)c1)C(=O)O [L-DOPA], the “effect on increased basal respiration in park2 morphants” value (park2 morphants) is reported as “reverses this increased bioenergetics to WT levels”.
For CC(Cc1ccccc1)(NC(=O)CN)c1ccccc1 (stereo not shown) [Remacemide], the “uncovered by the screening platform in genetic model (scn1a morphants)” value (“uncovered … (scn1a morphants)” for short) (scn1a morphants [1]) was “would not have uncovered” and the “uncovered by the screening platform in genetic model (kcna1 morphants)” value (“uncovered … (kcna1 morphants)” below) (kcna1 morphants) was “would not have uncovered”.
C[C@H](NCc1ccc(OCc2cccc(F)c2)cc1)C(N)=O [Safinamide] was tested, and the “uncovered … (scn1a morphants)” value (scn1a morphants [1]) was “would not have uncovered” and the “uncovered … (kcna1 morphants)” value (kcna1 morphants) was “would not have uncovered”.
With CC(=O)N1N=C(c2ccc(N)cc2)c2cc3c(cc2C[C@H]1C)OCO3 [Talampanel] the “uncovered … (scn1a morphants)” value (scn1a morphants [1]) was “would not have uncovered” and the “uncovered … (kcna1 morphants)” value (kcna1 morphants) was “would not have uncovered”.
CCCC(CCC)C(=O)O [Valproic acid] was tested, and the “effect on increased basal respiration in kcna1 mutant larvae” value (kcna1 mutants) was “decreased”, the “events via which increased respiration was blocked, kcna1 morphants” value (kcna1 morphant zebrafish) was “mitochondrial-mediated events” and the “effect on elevated basal respiration in kcna1 morphant larvae” value (kcna1 morphant zebrafish) was “blocked”. For the same molecule, the “effect on hyperactivity of kcna1 morphants” value [2] was “no effect”, the “effect on increased basal respiration in scn1a morphants” value (scn1a morphants [3]) was “reduce basal respiration to WT levels” and the “events via which elevated basal respiration was blocked, PTZ treated larvae” value [4] was “non-mitochondrial-mediated events”. For the same molecule, the “effect on elevated basal respiration in PTZ treated larvae” value ([4]; 24-well plate) was “blocked”.
In the case of O=C1CCc2ccc(OCCCCN3CCN(c4cccc(Cl)c4Cl)CC3)cc2N1 [aripiprazole], the “effect on increased basal respiration in shank3 morphants” value (shank3 morphants) is reported as “Neither resperidon nor aripiprazole were effective”.
For CC(C)C[C@H]1C(=O)N2CCC[C@H]2[C@]2(O)O[C@](NC(=O)[C@@H]3C=C4c5cccc6[nH]c(Br)c(c56)C[C@H]4N(C)C3)(C(C)C)C(=O)N12 [bromocriptine], the “effect on increased basal respiration in park2 morphants” value (park2 morphants) was “no effect”.
N.N.[Cl][Pt][Cl] [cisplatin] was tested, and the “effect on increased basal respiration in cdkn2b morphants” value (cdkn2b morphants) was “reverses this increased bioenergetics to WT levels” and the “effect on increased basal respiration in smarcbla morphants” value (smarcbla morphants) was “reverses this increased bioenergetics to WT levels”.
O=P1(N(CCCl)CCCl)NCCCO1 (stereo not shown) [cyclophosphamide] was tested, and the “effect on increased basal respiration in smarcbla morphants” value (smarcbla morphants) was “no effect”.
With Cc1nc2n(c(=O)c1CCN1CCC(c3noc4cc(F)ccc34)CC1)CCCC2 [resperidon] the “effect on increased basal respiration in shank3 morphants” value (shank3 morphants) was “Neither resperidon nor aripiprazole were effective”.
For O=C(CCCCCCC(=O)Nc1ccccc1)NO [vorinostat], the “effect on increased basal respiration in kcna1 mutant larvae” value (kcna1 mutants) was “decreased”, the “events via which increased respiration was blocked, kcna1 morphants” value (kcna1 morphant zebrafish) was “mitochondrial-mediated events” and the “effect on elevated basal respiration in kcna1 morphant larvae” value (kcna1 morphant zebrafish) was “blocked”. For the same molecule, the “effect on seizure-like activity (EEG traces)” value (kcna1 mutant zebrafish) was “blocks” and the “number of seizures per day (video EEG)” value (Kv1.1 null mice) was “significantly reduced”.
